According to US10670605B2, “Cysteine reactive probes and uses thereof” (The Scripps Research Institute, priority 2015, dated 2020):

Legend:
Assay in all cases: Competitive isoTOP-ABPP in situ (fragment-treated cells)
Assay type in all cases: cell-based
[1] = molecular target: cysteines in MDA-MB-231 and Ramos cells (Homo sapiens, UniProt Q9NYL2)
[2] = molecular target: T1, cysteines in MDA-MB-231 and Ramos cells (Homo sapiens, UniProt P42765)
T1 sequence (P42765 1-397): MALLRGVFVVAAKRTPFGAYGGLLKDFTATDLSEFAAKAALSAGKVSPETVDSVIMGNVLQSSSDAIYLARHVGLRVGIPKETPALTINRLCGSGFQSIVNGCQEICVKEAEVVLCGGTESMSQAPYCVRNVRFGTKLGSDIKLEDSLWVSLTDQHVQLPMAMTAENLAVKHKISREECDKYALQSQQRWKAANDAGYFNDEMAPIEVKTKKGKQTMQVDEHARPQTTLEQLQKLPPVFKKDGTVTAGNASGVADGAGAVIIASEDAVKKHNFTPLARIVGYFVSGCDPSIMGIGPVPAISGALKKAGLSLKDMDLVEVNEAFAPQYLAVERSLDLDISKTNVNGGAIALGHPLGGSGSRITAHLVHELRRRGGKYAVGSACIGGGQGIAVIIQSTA

[3] = molecular target: cysteines in MDA-MB-231 and Ramos cells (Homo sapiens, UniProt O00299)
[4] = molecular target: T2, cysteines in MDA-MB-231 and Ramos cells (Homo sapiens, UniProt O15294)
T2 sequence (O15294 1-1046): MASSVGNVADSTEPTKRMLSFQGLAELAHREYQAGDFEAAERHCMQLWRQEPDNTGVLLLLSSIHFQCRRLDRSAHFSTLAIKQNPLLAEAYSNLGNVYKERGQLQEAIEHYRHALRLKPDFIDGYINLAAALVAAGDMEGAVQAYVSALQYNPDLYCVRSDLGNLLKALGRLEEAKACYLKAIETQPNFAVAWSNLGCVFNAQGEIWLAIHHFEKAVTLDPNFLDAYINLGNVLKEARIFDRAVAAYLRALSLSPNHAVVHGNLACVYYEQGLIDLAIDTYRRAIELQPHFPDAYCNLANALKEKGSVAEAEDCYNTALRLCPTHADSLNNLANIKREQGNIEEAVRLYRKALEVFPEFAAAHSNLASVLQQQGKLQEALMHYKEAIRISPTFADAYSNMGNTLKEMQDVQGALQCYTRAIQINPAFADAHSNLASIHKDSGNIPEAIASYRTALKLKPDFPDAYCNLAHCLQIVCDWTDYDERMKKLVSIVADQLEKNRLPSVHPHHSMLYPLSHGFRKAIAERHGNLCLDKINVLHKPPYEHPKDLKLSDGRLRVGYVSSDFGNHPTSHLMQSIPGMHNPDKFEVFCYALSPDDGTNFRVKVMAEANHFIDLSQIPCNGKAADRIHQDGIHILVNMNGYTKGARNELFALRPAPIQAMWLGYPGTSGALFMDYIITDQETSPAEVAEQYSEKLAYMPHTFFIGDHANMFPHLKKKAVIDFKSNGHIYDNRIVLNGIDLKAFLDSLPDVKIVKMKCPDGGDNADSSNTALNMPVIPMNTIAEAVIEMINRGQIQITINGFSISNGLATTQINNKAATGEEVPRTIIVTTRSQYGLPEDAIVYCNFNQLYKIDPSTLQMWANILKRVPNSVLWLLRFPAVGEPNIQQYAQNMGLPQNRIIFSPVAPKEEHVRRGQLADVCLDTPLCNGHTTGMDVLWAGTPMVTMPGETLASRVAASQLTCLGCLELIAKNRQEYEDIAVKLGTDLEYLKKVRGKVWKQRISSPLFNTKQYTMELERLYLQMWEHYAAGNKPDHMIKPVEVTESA

[5] = molecular target: cysteines in MDA-MB-231 and Ramos cells (Homo sapiens, UniProt Q13526)
Sequence of cysteines in MDA-MB-231 and Ramos cells (Homo sapiens, UniProt Q13526) (Q13526 whole entry): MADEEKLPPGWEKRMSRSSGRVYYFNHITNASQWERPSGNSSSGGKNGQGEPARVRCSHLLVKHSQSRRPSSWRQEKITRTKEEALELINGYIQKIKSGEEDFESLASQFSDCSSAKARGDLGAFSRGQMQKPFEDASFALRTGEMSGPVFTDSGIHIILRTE

[6] = molecular target: T3, cysteines in MDA-MB-231 and Ramos cells (Homo sapiens, UniProt Q86SX6)
T3 sequence (Q86SX6 32-157): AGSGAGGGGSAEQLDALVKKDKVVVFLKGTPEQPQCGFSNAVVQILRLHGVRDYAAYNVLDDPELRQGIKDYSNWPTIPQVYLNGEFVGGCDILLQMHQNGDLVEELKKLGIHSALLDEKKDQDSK

[7] = molecular target: T4, cysteines in MDA-MB-231 and Ramos cells (Homo sapiens, UniProt P42224); conditions: 200 μM, insitu, 231
T4 sequence (P42224 1-750): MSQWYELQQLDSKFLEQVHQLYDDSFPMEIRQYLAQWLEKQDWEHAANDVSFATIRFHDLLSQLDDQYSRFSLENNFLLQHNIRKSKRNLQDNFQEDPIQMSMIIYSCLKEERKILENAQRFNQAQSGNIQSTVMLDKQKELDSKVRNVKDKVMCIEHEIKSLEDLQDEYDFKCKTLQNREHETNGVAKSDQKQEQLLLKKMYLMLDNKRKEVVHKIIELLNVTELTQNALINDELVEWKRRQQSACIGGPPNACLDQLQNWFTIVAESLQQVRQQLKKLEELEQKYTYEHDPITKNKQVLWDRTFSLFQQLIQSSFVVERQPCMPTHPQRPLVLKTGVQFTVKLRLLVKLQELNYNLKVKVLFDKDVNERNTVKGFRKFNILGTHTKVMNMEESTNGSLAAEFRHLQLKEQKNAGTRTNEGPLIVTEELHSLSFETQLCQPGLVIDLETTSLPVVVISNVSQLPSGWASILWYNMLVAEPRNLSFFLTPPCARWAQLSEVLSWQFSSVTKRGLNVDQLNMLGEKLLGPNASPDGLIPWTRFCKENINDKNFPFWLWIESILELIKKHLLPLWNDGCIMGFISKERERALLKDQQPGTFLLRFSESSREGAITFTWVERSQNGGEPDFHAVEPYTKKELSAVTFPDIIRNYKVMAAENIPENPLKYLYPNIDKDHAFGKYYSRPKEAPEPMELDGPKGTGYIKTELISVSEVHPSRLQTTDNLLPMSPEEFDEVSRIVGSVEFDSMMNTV

Sequence of cysteines in MDA-MB-231 and Ramos cells (Homo sapiens, UniProt Q9NYL2) (Q9NYL2 whole entry): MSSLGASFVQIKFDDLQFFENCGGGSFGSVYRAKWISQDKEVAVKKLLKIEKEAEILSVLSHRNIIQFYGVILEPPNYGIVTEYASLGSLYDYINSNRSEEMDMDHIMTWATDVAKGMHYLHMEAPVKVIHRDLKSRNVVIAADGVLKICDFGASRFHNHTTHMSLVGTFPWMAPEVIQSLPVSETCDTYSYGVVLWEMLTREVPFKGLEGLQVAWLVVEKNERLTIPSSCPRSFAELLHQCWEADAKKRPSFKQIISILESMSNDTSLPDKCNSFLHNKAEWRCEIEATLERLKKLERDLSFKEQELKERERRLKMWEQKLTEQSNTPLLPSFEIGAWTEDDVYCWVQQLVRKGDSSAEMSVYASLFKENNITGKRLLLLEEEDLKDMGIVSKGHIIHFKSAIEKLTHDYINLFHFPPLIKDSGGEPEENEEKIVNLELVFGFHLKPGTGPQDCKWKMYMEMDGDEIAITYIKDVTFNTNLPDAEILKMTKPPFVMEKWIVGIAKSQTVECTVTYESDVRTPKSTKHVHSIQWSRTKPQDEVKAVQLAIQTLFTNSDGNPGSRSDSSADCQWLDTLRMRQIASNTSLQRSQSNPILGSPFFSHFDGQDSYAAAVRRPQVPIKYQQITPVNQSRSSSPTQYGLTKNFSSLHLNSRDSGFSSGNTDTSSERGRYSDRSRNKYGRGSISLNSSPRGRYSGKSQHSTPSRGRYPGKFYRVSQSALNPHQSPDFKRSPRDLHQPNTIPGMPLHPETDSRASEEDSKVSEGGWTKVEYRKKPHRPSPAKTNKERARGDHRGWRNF

| SMILES | isoTOP-ABPP ratio Q9NYL2_C22 ([1]; 200 μM, insitu, 231) | isoTOP-ABPP ratio P42765_C92 ([2]; 200 μM, insitu, 231) | isoTOP-ABPP ratio O00299_C24 ([3]; 200 μM, insitu, 231) | isoTOP-ABPP ratio O15294_C758 ([4]; 200 μM, insitu, 231) | isoTOP-ABPP ratio Q13526_C113 ([5]; 200 μM, insitu, 231) | isoTOP-ABPP ratio Q86SX6_C67 ([6]; 200 μM, insitu, 231) | isoTOP-ABPP ratio P42224_C492 [7] | other results |
| --- | --- | --- | --- | --- | --- | --- | --- | --- |
| CC(C)CCOCCNC(=O)CCl [compound 27] | 0.7 | 1.2 | 0.7 | 1.0 | 0.5 | 1.5 |  |  |
| COc1cc2c(cc1OC)CN(C(=O)CCl)CC2 [compound 8] |  |  |  |  |  |  |  | isoTOP-ABPP reactivity Q9NYL2_C22 MUTK Mitogen-activated protein kinase MLTK ([1]; 200 μM, insitu, 231): 1.4; isoTOP-ABPP reactivity P42765_C92 ACAA2 ([2]; 200 μM, insitu, 231): 20.0; isoTOP-ABPP reactivity O00299_C24 CLIC1 ([3]; 200 μM, insitu, 231): 10.3; isoTOP-ABPP reactivity 015294_C758 OGT ([4]; 200 μM, insitu, 231): 2.4; isoTOP-ABPP reactivity Q13526_C113 PIN1 ([5]; 200 μM, insitu, 231): 2.6; isoTOP-ABPP reactivity Q865X6_C67 GLRX5 ([6]; 200 μM, insitu, 231): 1.0 |
| COc1ccc(C2CC(c3cccs3)=NN2C(=O)CCl)cc1 (stereo not shown) [compound 4] |  |  |  |  |  |  |  | isoTOP-ABPP reactivity Q9NYL2_C22 MUTK Mitogen-activated protein kinase MLTK ([1]; 100 μM in situ 231): 20.0; isoTOP-ABPP reactivity P42765_C92 ACAA2 ([2]; 100 μM in situ 231): 3.7; isoTOP-ABPP reactivity O00299_C24 CLIC1 ([3]; 100 μM in situ 231): 20.0; isoTOP-ABPP reactivity 015294_C758 OGT ([4]; 100 μM in situ 231): 6.4; isoTOP-ABPP reactivity O15294_C620 OGT ([4]; 100 μM in situ 231): 20.0; isoTOP-ABPP reactivity Q13526_C113 PIN1 ([5]; 100 μM in situ 231): 3.4; isoTOP-ABPP reactivity Q865X6_C67 GLRX5 ([6]; 100 μM in situ 231): 1.4 |
| O=C(CCl)Nc1cccc2ncccc12 [compound 51] |  | 1.1 |  | 1.1 | 1.4 | 1.0 | 2.4 |  |
| COc1ccccc1OCCNC(=O)CCl [compound 28] |  |  |  | 1.0 | 0.7 |  | 0.8 |  |
| O=C(CCl)N1CCN(S(=O)(=O)c2ccccc2F)CC1 [compound 10] | 1.2 | 3.7 | 5.0 | 2.3 | 2.0 | 1.3 | 20.0 | isoTOP-ABPP ratio P42765_C92 ([2]; 200 μM, insitu, ramos): 1.1; isoTOP-ABPP ratio, cysteine O15294_C620 ([4]; 200 μM, insitu, ramos): 12 .0; isoTOP-ABPP ratio Q13526_C113 ([5]; 200 μM, insitu, ramos): 1.3; isoTOP-ABPP ratio Q86SX6_C67 ([6]; 200 μM, insitu, ramos): 1.1 |
| CC1CCc2ccccc2N1C(=O)CCl (stereo not shown) [compound 45] | 2.3 | 15.1 |  | 2.9 | 10.0 | 9.1 | 20.0 |  |
| Cc1ccc(C=C(C#N)C(=O)NCCN2CCOCC2)cc1 [compound 41] | 0.6 | 1.1 | 0.6 | 0.9 | 0.6 | 1.0 | 0.6 | isoTOP-ABPP ratio O15294_C620 ([4]; 200 μM, insitu, 231): 1.0 |
